Some test systems named below: 786-0; DU-145; EKVX; HCC 2998; HCT-15; MDA-N; Malme-3M; NCI-H460; OVCAR-4; OVCAR-8; PC-3; RXF 393; SK-MEL-2; SK-MEL-5; SK-OV-3; SN12C; SW-620; T47D; UACC-257; UO-31.
Common to all, as to experiment: NCI-60 cell line screen, 48 h

The structures appear in SMILES notation.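 Assay format: 96-well plates, 48-hour exposure. GI50 marks 50% less growth.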 Activity calls are given as the source filed them. Cut-off read from the data, not from the text of the source: active = GI50 up to about 1.1 µM and inactive = higher. Where only a bound is given, the exact number is not on record here.

Regarding `CC(C(O)c1ccccc1)N(C)/N=N/c1nc2c([nH]1)c(=O)n(C)c(=O)n2C` (stereo not given), the GI50 was 74.1 µM (inactive) in the experiment with 786-0; 99.3 µM (inactive) with DU-145; 88.1 µM (inactive) with EKVX; 39.9 µM (inactive) with HCC 2998; 90.4 µM in the experiment with HCT-15; 44.8 µM (inactive) with MDA-N. The GI50 was > 100 µM (inactive) in the experiment on Malme-3M; 25.2 µM (inactive) in the experiment on NCI-H460; > 100 µM (inactive) in the experiment on OVCAR-4; > 100 µM (inactive) in the experiment with OVCAR-8; 95.3 µM (inactive) in the experiment on PC-3; 42.9 µM (inactive) with RXF 393. Moreover, the GI50 is > 100 µM (inactive) with SK-MEL-2; 66.8 µM (inactive) with SK-MEL-5; > 100 µM (inactive) with SK-OV-3; 52.6 µM (inactive) with SN12C; > 100 µM (inactive) in the experiment with SW-620; 85.5 µM (inactive) with T47D. The GI50 with UACC-257 and with UO-31 was > 100 µM (inactive) in each case.
On to `COc1ccc(/C=C/C(=O)c2ccc(OC(=O)/C=C/c3ccccc3)cc2)cc1`, for which the GI50 was 17 µM (inactive) with 786-0; 11.9 µM (inactive) in the experiment with DU-145; 29 µM (inactive) in the experiment on EKVX; 16.2 µM (inactive) in the experiment on HCC 2998; 15.7 µM with HCT-15; 14.5 µM (inactive) in the experiment with MDA-N. Also, the GI50 with Malme-3M is 41 µM (inactive); in the experiment on NCI-H460, 19.4 µM (inactive); in the experiment on OVCAR-4, 24.4 µM (inactive); in the experiment with OVCAR-8, 26.7 µM (inactive); in the experiment on PC-3 it was 25.7 µM (inactive); with RXF 393, 41.7 µM (inactive). Further, the GI50 in the experiment on SK-MEL-2 is 45.1 µM (inactive); in the experiment on SK-MEL-5 it was 26 µM (inactive); in the experiment on SK-OV-3, 53 µM (inactive); in the experiment with SN12C it was 26.6 µM (inactive); with SW-620 it was 28.1 µM (inactive); in the experiment on T47D, 23.9 µM (inactive). Besides, the GI50 in the experiment on UACC-257 was 37.7 µM (inactive); with UO-31 it was 22.7 µM (inactive).
As to `Brc1ccc2c(-c3nc(-c4c[nH]c5ccccc45)cs3)c[nH]c2c1`, the GI50 in the experiment with 786-0 is 21 µM (inactive); with DU-145 it was 23.4 µM (inactive); in the experiment on EKVX it was 12.7 µM (inactive); in the experiment on HCC 2998 it was 24 µM (inactive); in the experiment with HCT-15, 16.8 µM; in the experiment on MDA-N, 41.9 µM (inactive). For the same compound, the GI50 in the experiment with Malme-3M is > 100 µM (inactive); with NCI-H460 it was 11.8 µM (inactive); in the experiment on OVCAR-4 it was > 53.5 µM (inactive); with OVCAR-8 it was 36.4 µM (inactive); in the experiment with PC-3, 30.8 µM (inactive); with RXF 393, 17.6 µM (inactive). In addition, the GI50 in the experiment on SK-MEL-2 was > 61.2 µM (inactive); with SK-MEL-5, 22.1 µM (inactive); in the experiment with SK-OV-3, > 100 µM (inactive); with SN12C it was 42.9 µM (inactive); in the experiment on SW-620, 35.4 µM (inactive); in the experiment with T47D, 30.9 µM (inactive). For the same compound, the GI50 in the experiment on UACC-257 is 69.2 µM (inactive); in the experiment with UO-31, 19.5 µM (inactive).
`C=CCNC1=C2C[C@@H](C)C[C@@H](OC)[C@@H](OC(=O)CCCN)[C@H](C)/C=C(\C)[C@@H](OC(N)=O)[C@H](OC)/C=C\C=C(/C)C(=O)NC(=CC1=O)C2=O`: the GI50 was 17.1 µM (inactive) in the experiment with 786-0; 13.8 µM (inactive) with DU-145; 18.7 µM (inactive) in the experiment with EKVX; 15.5 µM (inactive) with HCC 2998; 19.4 µM in the experiment with HCT-15; 12.6 µM (inactive) in the experiment on MDA-N. Moreover, the GI50 in the experiment on Malme-3M is 11.4 µM (inactive); in the experiment with NCI-H460, 14.9 µM (inactive); in the experiment with OVCAR-4 it was 20.6 µM (inactive); in the experiment on OVCAR-8 it was 19.4 µM (inactive); with PC-3, 14 µM (inactive); in the experiment with RXF 393, 20 µM (inactive). Further, the GI50 in the experiment on SK-MEL-2 is 15.9 µM (inactive); in the experiment with SK-MEL-5 it was 8.39 µM (inactive); in the experiment on SK-OV-3 it was 14.6 µM (inactive); with SN12C, 17.4 µM (inactive); in the experiment on SW-620, 19.7 µM (inactive); in the experiment on T47D it was 27.4 µM (inactive). Besides, the GI50 in the experiment with UACC-257 is 15.1 µM (inactive); with UO-31 it was 18.4 µM (inactive).
For `O=c1[nH]nc(Cc2ccccc2)n1/N=C/c1ccc([N+](=O)[O-])o1`, the GI50 with 786-0 is 2.76 µM (inactive); in the experiment with DU-145 it was 3.77 µM (inactive); with EKVX, 3.77 µM (inactive); in the experiment on HCC 2998 it was 3.99 µM (inactive); in the experiment on HCT-15, 2.08 µM; with MDA-N, 1.69 µM (inactive). Also, the GI50 with Malme-3M is 1.51 µM (inactive); in the experiment with NCI-H460, 3.46 µM (inactive); with OVCAR-4 it was 4.92 µM (inactive); in the experiment with OVCAR-8, 2.16 µM (inactive); in the experiment on PC-3 it was 3.15 µM (inactive); in the experiment with RXF 393, 1.88 µM (inactive). Besides, the GI50 is 3.56 µM (inactive) in the experiment on SK-MEL-2; 1.83 µM (inactive) with SK-MEL-5; 15.4 µM (inactive) in the experiment on SK-OV-3; 3.31 µM (inactive) in the experiment with SN12C; 1.39 µM (inactive) with SW-620; 6.7 µM (inactive) in the experiment with T47D. Also, the GI50 in the experiment on UACC-257 was 3.56 µM (inactive); in the experiment on UO-31, 4.47 µM (inactive).
In the case of `CC1=[N+](C)CCCN1C`, the GI50 is > 100 µM (inactive) with 786-0; > 100 µM (inactive) in the experiment with DU-145; > 100 µM (inactive) in the experiment on EKVX; > 100 µM (inactive) with HCC 2998; greater than 100 µM in the experiment with HCT-15; > 100 µM (inactive) in the experiment with MDA-N. Further, the GI50 in the experiment with Malme-3M, with NCI-H460, with OVCAR-4, in the experiment on OVCAR-8, in the experiment on PC-3 and with RXF 393 was > 100 µM (inactive) in each case. For the same compound, the GI50 with SK-MEL-2, with SK-MEL-5, in the experiment with SK-OV-3, in the experiment on SN12C, in the experiment with SW-620 and in the experiment with T47D was > 100 µM (inactive) throughout. The GI50 in the experiment with UACC-257 and in the experiment on UO-31 was > 100 µM (inactive) each time.

For the origin of these results see ChEMBL document CHEMBL1201862, “PubChem BioAssay data set” (2004).
